Like-named read-outs stand apart in the source and are kept apart here.
Columns and labels:
Solubility in water = assay type: physicochemical
[1] = remark: listed apart in the source
Protocol: Supercritical applications using CO2 typically operate at temperatures between above 32° C. and pressures above about 1,070 psi.

[2] = Solubility in common organic solvents; assay type: physicochemical; settings: such as dichloromethane and acetone
Protocol: This example details the synthesis of a tetrabutyl ammonium molten salt of the amide having chemical formula III above. One-tenth of a mole (50 g) of the sodium salt of the amide-sulfonate salt having chemical structure III above (with R2 and R4 being CH2CH3, R1 and R5 each being a 2-ethylhexyl group, and R3 being CH2) was dissolved in 250 mL of dichloromethane, and one-tenth mole (32 g) of tetrabutyl ammonium bromide was added as a solid. The mixture was stirred for a day, after which time the solution was filtered first through filter paper and then through a short plug of silica gel. The eluted dichloromethane solution was quickly washed with water, dried over magnesium sulfate, and the solvent removed in vacuo, leaving the desired product in high yield (64 g, 89%). The product salt is soluble in both water and in several common organic solvents, such as dichloromethane and acetone. The melting range of the resulting salt was less than about 30° C. because the product was a viscous oil at room temperature. The product salt included Bis (N-ethyl-N-(2-ethylhexyl)sulfosuccinate diamide) anion paired with tetrabutyl ammonium cation.

Q: Which Solubility in water (Solubility in water) does the source give for `CCCCC(CC)COC(=O)CC(C(=O)OCC(CC)CCCC)S(=O)(=O)[O-].CCCCC(CC)COC(=O)CC(C(=O)OCC(CC)CCCC)S(=O)(=O)[O-].C[N+](C)(C)CCCCCC[N+](C)(C)C` (stereo not drawn) [Example 3, Me3N(CH2)6NMe3 Docusate] here?
A: Hydrophobic

Q: Which Solubility in water (Solubility in water) does the source give for `CCCCC(CC)COC(=O)CC(C(=O)OCC(CC)CCCC)S(=O)(=O)[O-].CC[N+](CC)(CC)CC` (stereo not drawn) [Example 5, Et4N Docusate] here?
A: miscible

Q: With `CCCCC(CC)COC(=O)CC(C(=O)OCC(CC)CCCC)S(=O)(=O)[O-].CCCCCCn1cc[n+](C)c1` (stereo not drawn) [Example 6, 1-n-hexyl-3-methyl imidazolium docusate] as the compound, how does the “Phase behaviour on contact with water” value (addition of additional water to the gel, followed by agitation) read?
A: formation of two phases

Q: What about the “Phase behaviour on contact with water” value (contacted with 40 volume percent or less of water, even after agitation) of the same compound?
A: formation of two phases

Q: What about the “Phase behaviour on contact with water” value (contacted with 50 volume percent water, agitation) of the same compound?
A: stiff, visibly monophasic gel

Q: With `CCCCC(CC)COC(=O)CC(C(=O)OCC(CC)CCCC)S(=O)(=O)[O-].CCCC[N+](CCCC)(CCCC)CCCC` (stereo not drawn) [Example 1, tetrabutylammonium docusate] as the compound, how does the “Solubility in supercritical carbon dioxide (CO2)” value [1] read?
A: soluble

Q: Which Solubility in water (Solubility in water) does the source give for `CCCCC(CC)CN(CC)C(=O)CC(C(=O)N(CC)CC(CC)CCCC)S(=O)(=O)[O-].CCCC[N+](CCCC)(CCCC)CCCC` (stereo not drawn) [Example 11] here?
A: soluble

Q: And the “Solubility in several common organic solvents” value [2]?
A: soluble

Q: For `CCCCC(CC)COC(=O)CC(C(=O)OCC(CC)CCCC)S(=O)(=O)[O-].CCCC[N+](C)(CCCC)CCCC` (stereo not drawn) [Example 2, Me(n-Bu)3N Docusate], which Solubility in water (Solubility in water) is on record?
A: Hydrophobic

Reference: US7750166B2, “Ionic liquids containing a sulfonate anion” (University of South Alabama, priority 2002, dated 2010)
